Values quoted from earlier work, collected in EP1988398B1, “Immunoassay for tramadol and its major metabolites” (Randox Laboratories Ltd., priority 2007, dated 2008).
Where a name gives a salt, the structure may show the parent alone.

[1] = oral administration of a single 100 mg dose

Compound | abundance of N-demethyltramadol relative to O-demethyltramadol (normal tramadol dosage levels) | plasma concentration of tramadol peaks [1] | time of peak plasma concentration [1] | Urinary excretion of the dose as metabolites (oral, single 100 mg dose) | Urinary excretion of the dose as the unchanged drug (oral, single 100 mg dose)
CNC[C@@H]1CCCC[C@@]1(O)c1cccc(OC)c1 (racemic) [N-demethyltramadol, (±)-cis-2-[(methylamino)methyl]-1-(3-methoxyphenyl)cyclohexanol] | 1.5-3 times |  |  |  | 
COc1cccc(C2(O)CCCCC2CN(C)C)c1 (racemic) [Tramadol, (±)-cis-2-[(dimethylamino)methyl]-1-(3-methoxyphenyl)cyclohexanol hydrochloride] |  | approximately 600 ng/ml | 2 to 3 h | 60% | 30%
